Results from article PMC10108392, “Rimonabant-Based Compounds Bearing Hydrophobic Amino Acid Derivatives as Cannabinoid Receptor Subtype 1 Ligands” (ACS Medicinal Chemistry Letters, 2023).
“Also recorded” adds a separate entry of the source.

Assays:
mice [1] = assay: Feeding test (food intake); format: in vivo, mouse; conditions: 10 mg/kg i.p., 1-h test, vs vehicle
Description: The tested compounds were injected i.p. (10 mg/kg), and after leaving for 30 min to allow the drug assimilation, mice were placed into individual cages with access to a predefined amount of their standard lab chow (2 g) for the 1-h test.
(§1) In Vivo Biological Assays
The international and national law and policies approved by Italian Ministry of Health were used to comply with all animal care and experimental procedures. Animal studies were advised in compliance with the ARRIVE guidelines and with the recommendations made by EU Directive 2010/63/EU for animal experiments and the Basel declaration including the 3Rs concept. CD-1 male mice (10-14 weeks of age, 25-30 g of weight) were bought from Charles River (Milan, Italy). Shortly after their arrival and for at least one week, they were kept in an animal care facility under controlled standard conditions of temperature (21 ± 1 °C), light (from 7:00 AM to 7:00 PM), and relative humidity (60 ± 10%). Access to drinking water and food was assured. All procedures were performed to decrease the number of animals used (n = 7 per group) and their distress.
The test was carried out as previously described. At 24 h before the start of a feeding test, all food was removed from the home cages of mice to be tested. The next day and at least 1 h before the feeding test began, the mice were transported to the laboratory. On test days, the animals were placed in the home cages for 30 min of drug assimilation, during which food was not available. Then compounds were intraperitoneally administered (10 mg/kg). Mice were transferred into transparent and individual plastic cages with thick white paper lining the bottom and access to a pre-measured amount of their regular lab chow (2 gr) for the 1-h test. At the end of 1 h, mice were repositioned into their home cage. The amount of food left in the trial cage, including crumbs, was measured, and the amount consumed was calculated.
Feeding trials normally happened on Tuesdays and Fridays between 12:00 and 14:00 h. […]

CB1R [2] = biological target: T1, CB1R (Rattus norvegicus, UniProt P20272); assay: [3H]WIN55,212-2 radioligand competition binding assay in rat brain membrane homogenate; conditions: for Ki: read-out: Ki [3H]WIN55,212-2 binding, 5 nM [3H]WIN55,212-2, ± SEM, n.b. = no binding of ligands was observed
T1 construct: Crude membrane fractions were prepared from the brain; from tissue; host or cells: Wistar rat whole brain, crude membrane fraction
T1 sequence (P20272 whole entry): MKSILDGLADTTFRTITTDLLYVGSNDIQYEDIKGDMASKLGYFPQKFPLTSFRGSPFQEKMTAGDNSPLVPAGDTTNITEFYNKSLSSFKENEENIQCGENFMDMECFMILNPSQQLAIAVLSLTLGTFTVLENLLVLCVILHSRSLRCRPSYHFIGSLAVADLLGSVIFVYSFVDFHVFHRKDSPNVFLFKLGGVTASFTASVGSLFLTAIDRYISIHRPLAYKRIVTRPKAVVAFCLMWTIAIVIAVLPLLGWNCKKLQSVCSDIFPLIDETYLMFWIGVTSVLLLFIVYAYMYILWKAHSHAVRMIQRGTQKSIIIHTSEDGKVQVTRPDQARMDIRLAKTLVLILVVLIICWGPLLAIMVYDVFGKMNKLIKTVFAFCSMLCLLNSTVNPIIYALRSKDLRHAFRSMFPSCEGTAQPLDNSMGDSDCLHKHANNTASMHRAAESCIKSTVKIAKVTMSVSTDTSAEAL
Description: (§2) Our novel chemical compounds were tested in vitro for their binding ability, efficacy, and potency on CB1R in rat brain membrane homogenate (Table 2 and SI, Figure S1). CB1Rs are the most abundant G-protein coupled receptors in the rodent and mammalian brain; therefore, this is an appropriate model to characterize our ligands in a more physiological system.
(§3) In Vitro Biological Assays
(§4) Preparation of Brain Membrane Homogenates
(§5) Wistar rats were locally bred and handled according to the EU Directive 2010/63/EU and to the Regulations on Animal Protection (40/2013. (II. 14.) Korm. r.) of Hungary. Crude membrane fractions were prepared from the brain. Brains were quickly removed from the euthanized rats and directly put in an ice-cold 50 mM Tris-HCl buffer (pH 7.4). The collected tissue was then homogenized in 30 volumes (v/w) of an ice-cold buffer with a Braun Teflon-glass homogenizer at the highest rpm. The homogenate was centrifuged at 20,000 × g for 25 min, and the resulting pellet was suspended in the same volume of a cold buffer followed by incubation at 37 °C for 30 min to remove endogenous ligands. Centrifugation was then repeated. The final pellets were taken up in five volumes of a 50 mM Tris-HCl (pH 7.4) buffer containing 0.32 M sucrose and stored at -80 °C. Prior to the experiment, aliquots were thawed and centrifuged at 20,000 ×g for 25 min and then they were resuspended in 50 mM Tris-HCl (pH 7.4), homogenized with a Douncer, followed by the determination of the protein concentration by the method of Bradford. The membrane suspensions were immediately used either in radioligand binding experiments or in [35S]GTPγS functional assays.
Radioligand Competition Binding Assay
Binding experiments were performed at 30 °C for 60 min in a 50 mM Tris-HCl binding buffer (pH 7.4) containing 2.5 mM of EGTA, 5 mM of MgCl2 and 0.5 mg/mL of fatty acid-free BSA in plastic tubes in a total assay volume of 1 mL that contained 0.3-0.5 mg/mL of a membrane protein. Competition binding […]
ligands. […] The incubation […]
was terminated by diluting the samples with an ice-cold wash buffer (50 mM of Tris-HCl, 2.5 mM of EGTA, 5 mM of MgCl2, 0.5% fatty acid free BSA, pH 7.4), followed by repeated washing and rapid filtration through Whatman GF/B glass fiber filters (Whatman Ltd., Maidstone, UK) pre-soaked with 0.1% polyethyleneimine (30 min before the filtration). Filtration was performed with a 24-well Brandel Cell Harvester (Gaithersburg, MD, USA). Filters were air-dried and immersed into Ultima Gold MV scintillation cocktail, and then radioactivity was measured with a TRI-CARB 2100TR liquid scintillation analyzer (Packard, Perkin Elmer, Waltham, MA, USA). […]
The results of the competition binding studies are reported as means ± S.E.M. of at least three independent experiments each performed in duplicate. In competition binding studies, the inhibitory constants (Ki) were calculated from the inflection points of the displacement curves using non-linear least-square curve fitting and the Cheng-Prusoff equation, Ki= […]/(1 + [ligand]/Kd). […]

CB1R [3] = biological target: T1, CB1R; assay: Ligand stimulated [35S]GTPγS binding assay in rat brain membranes; format: biochemical; conditions: for CB1R functional profile (agonist / antagonist / inverse agonist): from [35S]GTPγS binding; for CB1R functional profile (agonist / antagonist / inverse agonist) / EC50: rat brain membranes; for Emax: read-out: [35S]GTPγS stimulation Emax; for EC50: ± SEM, read-out: [35S]GTPγS stimulation EC50
Description: as §2, §3, §4
as §5, with “assays. […]” for “assays.”
was terminated by diluting the samples with an ice-cold wash buffer (50 mM of Tris-HCl, 2.5 mM of EGTA, 5 mM of MgCl2, 0.5% fatty acid free BSA, pH 7.4), followed by repeated washing and rapid filtration through Whatman GF/B glass fiber filters (Whatman Ltd., Maidstone, UK) pre-soaked with 0.1% polyethyleneimine (30 min before the filtration). Filtration was performed with a 24-well Brandel Cell Harvester (Gaithersburg, MD, USA). Filters were air-dried and immersed into Ultima Gold MV scintillation cocktail, and then radioactivity was measured with a TRI-CARB 2100TR liquid scintillation analyzer (Packard, Perkin Elmer, Waltham, MA, USA).
Ligand Stimulated [35S]GTPγS Binding Assay
Rat brain membranes (30 µg protein/tube), prepared as described above, were incubated with 0.05 nM of […]
mM of NaCl, 3 mM of MgCl2 and 1 mM of EGTA in a 50 mM Tris-HCl buffer (pH 7.4) for 60 min at 30 °C. Basal [35S]GTPγS binding was measured in the absence of ligands and set as 100%. Nonspecific […]
binding was determined by the addition of 10 µM unlabelled GTPγS and subtracted from total binding.
Incubation, filtration and radioactivity measurements of the samples were carried out as described above. […]
All […]
data and curves were analyzed by GraphPad Prism 5.0 (San Diego, CA, USA).

[4] = test system: rats with spinal cord injury (SCI); conditions: repeated treatment; cited from earlier work
mice [5] = assay: Zymosan-induced paw edema; format: in vivo, mouse; conditions: 100 μg/20 μL s.c., 15 min before zymosan
Description: Drugs were administered s.c. in the dorsal surface of the right hind paw at the dose of 100 μg/20 μL, 15 min before zymosan. […]
testing. […] Then, the compounds were
Compounds were prepared by freshly diluting
Then, these solutions were injected for
The total time the animal spent licking or biting its paw was calculated.
Then, paw edema was calculated as formerly
Paw volume was quantified using a
Data Analysis and Statistics
Statistically significant differences between
Data were considered statistically
The data and statistical analyses respected the recommendations on experimental design and analysis.

mice [6] = conditions: mice colitis model; cited from earlier work
mice [7] = assay: Hot plate test; format: in vivo, mouse; conditions: 10 μg/10 μL i.c.v., 15-120 min
Excerpt: as §1
The international and national law and policies approved by Italian Ministry of Health were used to comply with all animal care and experimental procedures. Animal studies were advised in compliance with the ARRIVE guidelines and with the recommendations made by EU Directive 2010/63/EU for animal experiments and the Basel declaration including the 3Rs concept. CD-1 male mice (10-14 weeks of age, 25-30 g of weight) were bought from Charles River (Milan, Italy). […]
The test was carried out as previously described. […] Mice were transferred into transparent and individual plastic cages with thick white paper lining the bottom and access to a pre-measured amount of their regular lab chow (2 gr) for the 1-h test. […] The amount of food left in the trial cage, including crumbs, was measured, and the amount consumed was calculated. […]
Thermal nociception (hot-plate test) was assessed with a commercially available apparatus consisting of a metal plate 25x25 cm (Ugo Basile, Italy) heated to a constant temperature of 55.0 ± 0.1 °C, on which a plastic cylinder (20 cm diameter, 18 cm high) was placed. The time of latency (s) was recorded from the moment the animal was placed in the cylinder on the hot plate until it licked its paws or jumped; the cut-off time was 60 s. […] The time course of latency was then determined at 15, 30, 45, 60, 90 and 120 min after compound treatment. […]

partially satiated rats = conditions: cited from earlier work

Structure (SMILES) | food intake (mice [1]) | Ki (CB1R [2]) [µM] | CB1R functional profile (agonist / antagonist / inverse agonist) (CB1R [3]) | Emax (CB1R [3]) [%] | EC50 (CB1R [3]) [µM] | Ki [3H]WIN55,212-2 binding (CB1R [2]; 5 nM [3H]WIN55,212-2, ± SEM, n.b. = no binding of ligands was observed) | neuropathic pain-related behavior [4] | anti-inflammatory effect on zymosan-induced paw volume increase (mice [5]) | anti-inflammatory effect in DSS-induced colitis (mice [6]) | anti-nociceptive effect in hot plate test (%MPE) (mice [7]) | food intake and motor behavior after WIN55,212-2 (partially satiated rats; higher doses (5 mg/kg), partially satiated rats) | food intake after WIN55,212-2 (partially satiated rats; i.p. 1 mg/kg and 2 mg/kg, up to 6 h after the injection)
Cc1c(C(=O)N[C@H](C(N)=O)C(C)(C)C)nn(-c2ccc(Cl)cc2)c1-n1cccc1 [Compound 14, RS2691-tLeu-NH2] | activity profile close to that of the vehicle | 0.021 ± 0.0038 | antagonist | 104 ± 1.4 |  |  |  |  |  |  |  | 
Cc1c(C(=O)N[C@H](C(N)=O)C(C)(C)C)nn(-c2ccccc2)c1-n1cccc1 [Compound 18, RS2709-tLeu-NH2] | slight reduction in food intake | 0.06 ± 0.0061 | inverse agonist | 57 ± 13 | 3.32 ± 0.242 |  |  |  |  |  |  | 
COC(=O)[C@@H](NC(=O)c1cc(-n2cccc2)n(-c2ccc(Cl)cc2)n1)C(C)C [Compound 21, RS2689-Val-OCH3] | slight reduction in food intake | 0.261 ± 0.027 | inverse agonists | 52 ± 4.8 | 1.36 ± 0.139 |  |  |  |  |  |  | 
COC(=O)[C@@H](NC(=O)c1cc(-n2cccc2)n(-c2ccc(Cl)cc2)n1)C(C)(C)C [Compound 22, RS2689-tLeu-OCH3] | activity profile close to that of the vehicle | 0.044 ± 0.004 | inverse agonists | 43 ± 12 | 4.96 ± 0.333 |  |  |  |  |  |  | 
COC(=O)[C@@H](NC(=O)c1nn(-c2ccc(Cl)cc2)c(-n2cccc2)c1C)C(C)(C)C [Compound 24, RS2691-tLeu-OCH3] | slight reduction in food intake | 0.017 ± 0.0037 | inverse agonists; also recorded: strong antagonist | 99 ± 4 |  |  |  |  |  |  |  | 
COC(=O)[C@@H](NC(=O)c1cc(-n2cccc2)n(-c2ccccc2)n1)C(C)(C)C [Compound 26, RS2708-tLeu-OCH3] | strong anorexic effect comparable to that of rimonabant | 0.283 ± 0.018 | inverse agonists | 44 ± 5 | 1.29 ± 0.151 |  |  |  |  |  |  | 
COC(=O)[C@@H](NC(=O)c1nn(-c2ccc(Cl)cc2Cl)c(-n2cccc2Cl)c1C)C(C)C [Compound 29, RS3516-Val-OCH3] | strong anorexic effect comparable to that of rimonabant | 0.03 ± 0.0035 | inverse agonists | 44 ± 10 | 2.84 ± 0.118 |  |  |  |  |  |  | 
CNC(=O)[C@@H](NC(=O)c1nn(-c2ccc(Cl)cc2Cl)c(-n2cccc2Cl)c1C)C(C)(C)C [Compound 40, RS3516-tLeu-NHCH3] |  |  |  |  | 0.237 ± 0.045 | n.b. |  |  |  |  |  | 
Cc1c(C(=O)c2cccc3ccccc23)c2cccc3c2n1[C@H](CN1CCOCC1)CO3 [WIN55,212-2] |  |  |  | 170 ± 1.7 |  |  | sustained decrease in neuropathic pain-related behavior | induced an anti-inflammatory effect | acting as an anti-inflammatory drug with improved pathological changes | diminished immediately after administration | inhibit the food intake and motor behavior | hyperphagia
